Experimental findings from patent US7943770B2, “Fused quinoline derivative and use thereof” (Takeda Pharmaceutical Company Limited, priority 2004, dated 2011) are described below.

The structures appear in SMILES notation.

The target in the assay is T1, hNK2 receptor (Homo sapiens, UniProt P21452).
T1 construct: host or cells: CHO cells
T1 sequence (P21452 1-398): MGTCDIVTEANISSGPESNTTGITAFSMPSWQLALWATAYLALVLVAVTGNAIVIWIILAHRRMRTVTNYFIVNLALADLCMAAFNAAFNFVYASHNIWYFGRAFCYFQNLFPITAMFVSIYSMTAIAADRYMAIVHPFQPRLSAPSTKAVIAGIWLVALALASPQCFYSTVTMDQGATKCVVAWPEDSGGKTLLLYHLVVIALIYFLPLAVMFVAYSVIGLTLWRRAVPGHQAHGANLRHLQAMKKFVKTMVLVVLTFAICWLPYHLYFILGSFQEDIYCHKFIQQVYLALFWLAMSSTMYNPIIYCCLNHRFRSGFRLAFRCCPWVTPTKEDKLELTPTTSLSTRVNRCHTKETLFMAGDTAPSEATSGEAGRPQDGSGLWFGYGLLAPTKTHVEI
Description: Radio-ligand ([125I]-NKA) receptor binding inhibitory activity using membrane fraction of hNK2 receptor-expressing CHO cell. The following applies: membrane fraction of hNK2 receptor-expressing CHO cells, 25° C., 30 min. The gist of the method:
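Inhibition of [125I]-NKA binding ([…] solution added) measured after 30 min at 25 °C using hNK2-CHO membrane fraction (20 μg/mL suspension) in pH 7.4 Tris buffer containing MnCl2, BSA and protease inhibitors. Filter-bound counts read; activity calculated as fraction of specific binding, non-specific defined with unlabeled NKA.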
One may read the IC50 as the concentration that gives 50% inhibition. Lower therefore signals inhibition by little substance. As for `COC[C@@H]1Nc2ccccc2[C@H]2[C@@H]1CCN2C(=O)[C@H]1CCCC[C@H]1NC(=O)Nc1ccccc1` [Example 204, N-((1R,2S)-2-{[(3aR,4R,9bR)-4-(Methoxymethyl)-2,3,3a,4,5,9b-hexahydro-1H-pyrrolo[3,2-c]quinolin-1-yl]carbonyl}cyclohexyl)-N′-phenylurea], the IC50 was less than 1 nM. In the case of `COC[C@@H]1Nc2ccccc2[C@H]2[C@@H]1CCN2C(=O)[C@H]1CCCC[C@H]1NC(=O)Nc1ccc(F)cc1` [Example 205, N-(4-Fluorophenyl)-N′-((1R,2S)-2-{[(3aR,4R,9bR)-4-(methoxymethyl)-2,3,3a,4,5,9b-hexahydro-1H-pyrrolo[3,2-c]quinolin-1-yl]carbonyl}cyclohexyl)urea] it was less than 1 nM; in that of `COC[C@@H]1Nc2ccccc2[C@H]2[C@@H]1CCN2C(=O)[C@H]1CCCC[C@H]1NC(=O)Nc1ccc(OC)cc1` [Example 206, N-((1R,2S)-2-{[(3aR,4R,9bR)-4-(Methoxymethyl)-2,3,3a,4,5,9b-hexahydro-1H-pyrrolo[3,2-c]quinolin-1-yl]carbonyl}cyclohexyl)-N′-(4-methoxyphenyl)urea], less than 1 nM. The same measure for `COC[C@@H]1Nc2ccccc2[C@H]2[C@@H]1CCN2C(=O)[C@H]1CCCC[C@H]1NC(=O)Nc1ccc2c(c1)OCO2` [Example 208, N-1,3-Benzodioxol-5-yl-N′-((1R,2S)-2-{[(3aR,4R,9bR)-4-(methoxymethyl)-2,3,3a,4,5,9b-hexahydro-1H-pyrrolo[3,2-c]quinolin-1-yl]carbonyl}cyclohexyl)urea]: less than 1 nM; for `COC[C@@H]1Nc2ccccc2[C@H]2[C@@H]1CCN2C(=O)[C@H]1CCCC[C@H]1NC(=O)/C=C/c1ccc(C(F)(F)F)cc1` [Example 209]: less than 1 nM. Take `COC[C@@H]1Nc2ccccc2[C@H]2[C@@H]1CCN2C(=O)[C@H]1CCCC[C@H]1NC(=O)c1ccc(C(F)(F)F)cc1` [Example 210, N-((1R,2S)-2-{[(3aR,4R,9bR)-4-(Methoxymethyl)-2,3,3a,4,5,9b-hexahydro-1H-pyrrolo[3,2-c]quinolin-1-yl]carbonyl}cyclohexyl)-4-(trifluoromethyl)benzamide]: the IC50 was less than 1 nM. In the case of `COC[C@@H]1Nc2ccccc2[C@H]2[C@@H]1CCN2C(=O)[C@H]1CCCC[C@H]1NC(=O)c1ccc(C)nc1` [Example 211, N-((1R,2S)-2-{[(3aR,4R,9bR)-4-(Methoxymethyl)-2,3,3a,4,5,9b-hexahydro-1H-pyrrolo[3,2-c]quinolin-1-yl]carbonyl}cyclohexyl)-6-methylnicotinamide] it was less than 10 nM; in that of `COC[C@@H]1Nc2ccccc2[C@H]2[C@@H]1CCN2C(=O)[C@H]1CCCC[C@H]1NC(=O)c1ccc(F)c(F)c1` [Example 212, 3,4-Difluoro-N-((1R,2S)-2-{[(3aR,4R,9bR)-4-(methoxymethyl)-2,3,3a,4,5,9b-hexahydro-1H-pyrrolo[3,2-c]quinolin-1-yl]carbonyl}cyclohexyl)benzamide], less than 1 nM. The same measure for `COC[C@@H]1Nc2ccccc2[C@H]2[C@@H]1CCN2C(=O)[C@H]1CCCC[C@H]1NC(=O)c1ccc(N(C)C)cc1` [Example 213, 4-(Dimethylamino)-N-((1R,2S)-2-{[(3aR,4R,9bR)-4-(methoxymethyl)-2,3,3a,4,5,9b-hexahydro-1H-pyrrolo[3,2-c]quinolin-1-yl]carbonyl}cyclohexyl)benzamide]: less than 1 nM. The same measure for `COC[C@@H]1Nc2ccccc2[C@H]2[C@@H]1CCN2C(=O)[C@H]1CCCC[C@H]1NC(=O)c1ccc(OC(F)(F)F)cc1` [Example 215, N-((1R,2S)-2-{[(3aR,4R,9bR)-4-(Methoxymethyl)-2,3,3a,4,5,9b-hexahydro-1H-pyrrolo[3,2-c]quinolin-1-yl]carbonyl}cyclohexyl)-4-(trifluoromethoxy)benzamide]: less than 1 nM; for `COC[C@@H]1Nc2ccccc2[C@H]2[C@@H]1CCN2C(=O)[C@H]1CCCC[C@H]1NC(=O)c1ccc(C#N)cc1` [Example 216, 4-Cyano-N-((1R,2S)-2-{[(3aR,4R,9bR)-4-(methoxymethyl)-2,3,3a,4,5,9b-hexahydro-1H-pyrrolo[3,2-c]quinolin-1-yl]carbonyl}cyclohexyl)benzamide]: less than 10 nM. Compound `COC[C@@H]1Nc2ccccc2[C@H]2[C@@H]1CCN2C(=O)[C@H]1CCCC[C@H]1NC(=O)Nc1ccc(C#N)cc1` [Example 217, N-(Cyanophenyl)-N′-((1R,2S)-2-{[(3aR,4R,9bR)-4-(methoxymethyl)-2,3,3a,4,5,9b-hexahydro-1H-pyrrolo[3,2-c]quinolin-1-yl]carbonyl}cyclohexyl)urea] yielded a half-maximal inhibitory concentration (IC50) of less than 1 nM. The same measure for `COC[C@@H]1Nc2ccccc2[C@H]2[C@@H]1CCN2C(=O)[C@H]1CCCC[C@H]1NC(=O)c1ccc2[nH]ccc2c1` [Example 218, N-((1R,2S)-2-{[(3aR,4R,9bR)-4-(Methoxymethyl)-2,3,3a,4,5,9b-hexahydro-1H-pyrrolo[3,2-c]quinolin-1-yl]carbonyl}cyclohexyl)-1H-indole-5-carboxamide]: less than 1 nM. In the case of `COC[C@@H]1Nc2ccccc2[C@H]2[C@@H]1CCN2C(=O)[C@H]1CCCC[C@H]1NC(=O)c1ccc2[nH]nnc2c1` [Example 219, N-((1R,2S)-2-{[(3aR,4R,9bR)-4-(methoxymethyl)-2,3,3a,4,5,9b-hexahydro-1H-pyrrolo[3,2-c]quinolin-1-yl]carbonyl}cyclohexyl)-1H-1,2,3-benzotriazole-5-carboxamide] it was less than 1 nM. In the case of `COC[C@@H]1Nc2ccccc2[C@H]2[C@@H]1CCN2C(=O)[C@H]1CCCC[C@H]1NC(=O)c1cc2ccccc2[nH]1` [Example 229, N-((1R,2S)-2-{[(3aR,4R,9bR)-4-(Methoxymethyl)-2,3,3a,4,5,9b-hexahydro-1H-pyrrolo[3,2-c]quinolin-1-yl]carbonyl}cyclohexyl)-4H-indole-2-carboxamide] it was less than 1 nM; in that of `COC[C@@H]1Nc2ccccc2[C@H]2[C@@H]1CCN2C(=O)[C@H]1CCCC[C@H]1NC(=O)c1ccccc1C#N` [Example 232, 2-Cyano-N-((1R,2S)-2-{[(3aR,4R,9bR)-4-(methoxymethyl)-2,3,3a,4,5,9b-hexahydro-1H-pyrrolo[3,2-c]quinolin-1-yl]carbonyl}cyclohexyl)benzamide], less than 10 nM; in that of `COC[C@@H]1Nc2ccccc2[C@H]2[C@@H]1CCN2C(=O)[C@H]1CCCC[C@H]1NC(=O)c1cccc(C#N)c1` [Example 233, 3-Cyano-N-((1R,2S)-2-{[(3aR,4R,9bR)-4-(methoxymethyl)-2,3,3a,4,5,9b-hexahydro-1H-pyrrolo[3,2-c]quinolin-1-yl]carbonyl}cyclohexyl)benzamide], less than 10 nM. `COC[C@@H]1Nc2ccccc2[C@H]2[C@@H]1CCN2C(=O)[C@H]1CCCC[C@H]1NC(=O)c1ccc(OC(F)F)cc1` [Example 234, 4-(Difluoromethoxy)-N-((1R,2S)-2-{[(3aR,4R,9bR)-4-(methoxymethyl)-2,3,3a,4,5,9b-hexahydro-1H-pyrrolo[3,2-c]quinolin-1-yl]carbonyl}cyclohexyl)benzamide] had an IC50 of less than 1 nM. The same measure for `COC[C@@H]1Nc2ccccc2[C@H]2[C@@H]1CCN2C(=O)[C@H]1CCCC[C@H]1NC(=O)c1nc2ccccc2[nH]1` [Example 237, N-((1R,2S)-2-{[(3aR,4R,9bR)-4-(Methoxymethyl)-2,3,3a,4,5,9b-hexahydro-1H-pyrrolo[3,2-c]quinolin-1-yl]carbonyl}cyclohexyl)-1H-benzimidazole-2-carboxamide]: less than 1 nM; for `COC[C@@H]1Nc2ccccc2[C@H]2[C@@H]1CCN2C(=O)[C@H]1CCCC[C@H]1NC(=O)CNc1ccccc1` [Example 238, N^1-((1R,2S)-2-{[(3aR,4R,9bR)-4-(Methoxymethyl)-2,3,3a,4,5,9b-hexahydro-1H-pyrrolo[3,2-c]quinolin-1-yl]carbonyl}cyclohexyl)-N^2-phenylglycinamide]: less than 10 nM; for `CNc1ccc(C(=O)N[C@@H]2CCCC[C@@H]2C(=O)N2CC[C@@H]3[C@H](COC)Nc4ccccc4[C@@H]32)cc1` [Example 239, N-((1R,2S)-2-{[(3aR,4R,9bR)-4-(Methoxymethyl)-2,3,3a,4,5,9b-hexahydro-1H-pyrrolo[3,2-c]quinolin-1-yl]carbonyl}cyclohexyl)-4-(methylamino)benzamide]: less than 1 nM.

Turning to `COC[C@@H]1Nc2ccccc2[C@H]2[C@@H]1CCN2C(=O)[C@H]1CCCC[C@H]1NC(=O)c1cccc(N(C)C)c1` [Example 241, 3-(Dimethylamino)-N-((1R,2S)-2-{[(3aR,4R,9bR)-4-(methoxymethyl)-2,3,3a,4,5,9b-hexahydro-1H-pyrrolo[3,2-c]quinolin-1-yl]carbonyl}cyclohexyl)benzamide], the IC50 was less than 10 nM. In the case of `COC[C@@H]1Nc2ccccc2[C@H]2[C@@H]1CCN2C(=O)[C@H]1CCCC[C@H]1NC(=O)c1c[nH]c2ccccc12` [Example 244, N-((1R,2S)-2-{[(3aR,4R,9bR)-4-(Methoxymethyl)-2,3,3a,4,5,9b-hexahydro-1H-pyrrolo[3,2-c]quinolin-1-yl]carbonyl}cyclohexyl)-1H-indole-3-carboxamide] it was less than 10 nM. The same measure for `COC[C@@H]1Nc2ccccc2[C@H]2[C@@H]1CCN2C(=O)[C@H]1CCCC[C@H]1NC(=O)c1ccc(S(N)(=O)=O)cc1` [Example 245, 4-(Aminosulfonyl)-N-((1R,2S)-2-{[(3aR,4R,9bR)-4-(methoxymethyl)-2,3,3a,4,5,9b-hexahydro-1H-pyrrolo[3,2-c]quinolin-1-yl]carbonyl}cyclohexyl)benzamide]: less than 10 nM.
